Source: US10100077B2, “6-aryl-9-glycosylpurines and use thereof” (UNIVERZITA PALACKEHO V OLOMOUCI, priority 2014, dated 2018)

Test: Calcein AM cytotoxicity assay, MCF-7
Type: cell-based
Conditions: human, MCF-7 breast cancer cells
Method in brief: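 K562, MCF-7 and NIH3T3 cells (10^4/well) in DMEM with 10% FBS were preincubated for 24 hrs, then given six 4-fold dilutions, usually from 166.7 μM, in duplicate for 72 hrs at 37° C. Viability was read by Calcein AM fluorescence after 1 hour, with GI50 from survival relative to control.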

COc1cccc(CNc2ncnc3c2ncn3[C@@H]2O[C@H](CO)[C@@H](O)[C@@H]2O)c1 [6-(3-methoxybenzylamino)-9-β-D-arabinofuranosylpurine]
GI50 at 72 h: > 100 µM
